Data from PubChem BioAssay (NCI).
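Method: 48-hour compound exposure of cells in 96-well plates, five concentrations, linear interpolation of endpoints. GI50 is the concentration that inhibits growth by half. TGI denotes the concentration required for complete inhibition of growth.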

Key:
Experiment in all cases: NCI tumour cell line growth inhibition, 48 h
[1] = system: HT29 colon
[2] = system: T-47D breast
[3] = system: HOP-92 NSCLC
[4] = system: SK-MEL-28 melanoma
[5] = system: MDA-MB-231 breast
[6] = system: OVCAR-5 ovarian
[7] = system: NCI-H23 lung
[8] = system: DU-145 prostate
[9] = system: SK-MEL-2 melanoma
[10] = system: CAKI-1 renal
[11] = system: EKVX NSCLC
[12] = system: LOX IMVI melanoma
[13] = system: A498 renal
[14] = system: MDA-MB-435
[15] = system: TK-10 renal
[16] = system: BT-549 breast
[17] = system: 786-0 renal
[18] = system: COLO 205 colon
[19] = system: SF-268 CNS
[20] = system: MALME-3M melanoma
[21] = system: IGROV1 ovarian
[22] = system: HCT-15 colon
[23] = system: M14 melanoma
[24] = system: SF-295 CNS
[25] = system: ACHN renal
[26] = system: SW-620 colon
[27] = system: NCI-H460 lung

Compound `NC(=O)c1cc(Br)cc(C2CCCCC2)c1O` has a GI50 [1] of 16.8 µM, a TGI [1] of 32 µM and a GI50 [2] of 11.5 µM. For the same compound, the TGI [2] was 27 µM, the GI50 [3] was 12.2 µM and the TGI [3] was 25.7 µM. For the same compound, the GI50 [4] was 14 µM, the TGI [4] was 27.3 µM and the GI50 [5] was 12.1 µM. It also gave a TGI [5] of 25.3 µM, a GI50 [6] of 13.9 µM and a TGI [6] of 27.8 µM. For the same compound, the GI50 [7] was 15.3 µM, the TGI [7] was 30.8 µM and the GI50 [8] was 12.3 µM. For the same compound, the TGI [8] was 24.9 µM, the GI50 [9] was 15.8 µM and the TGI [9] was 29.7 µM. It also gave a GI50 [10] of 6.15 µM, a TGI [10] of 20.3 µM and a GI50 [11] of 15.1 µM. For the same compound, the TGI [11] was 30.5 µM, the GI50 [12] was 13.2 µM and the TGI [12] was 26 µM. For the same compound, the GI50 [13] was 1.01 µM, the TGI [13] was 14.8 µM and the GI50 [14] was 14.7 µM. For the same compound, the TGI [14] was 28.8 µM, the GI50 [15] was 13.4 µM and the TGI [15] was 28.1 µM. For the same compound, the GI50 [16] was 13.6 µM, the TGI [16] was 26.4 µM and the GI50 [17] was 11.8 µM. The TGI [17] was 24.4 µM, the GI50 [18] was 16.5 µM and the TGI [18] was 31.1 µM. It also gave a GI50 [19] of 11.4 µM, a TGI [19] of 25 µM and a GI50 [20] of 19.6 µM. For the same compound, the TGI [20] was 35.9 µM, the GI50 [21] was 12.4 µM and the TGI [21] was 25.9 µM. The GI50 [22] was 13.7 µM, the TGI [22] was 30.7 µM and the GI50 [23] was 12.8 µM. The TGI [23] was 25.6 µM, the GI50 [24] was 11.3 µM and the TGI [24] was 24.5 µM. For the same compound, the GI50 [25] was 12.9 µM, the TGI [25] was 25.5 µM and the GI50 [26] was 15.5 µM. For the same compound, the TGI [26] was 29.8 µM, the GI50 [27] was 15.6 µM and the TGI [27] was 30.5 µM.
